Source: publication PMC3849129 (International journal of antimicrobial agents, 2013)
Positions of bridges follow the written chain, without caps; N, C: chain ends. Non-standard residues stand in square brackets, D forms with d. Residues, ends and D or L forms follow the SMILES beside them. *: point of attachment. Heptanoyl(6-Me) = CC(C)CCCCC(=O)*; X1 = CC[C@H](C)CCCCC(=O)*; Octanoyl = CCCCCCCC(=O)*; Dab = NCC[C@H](N)C(=O)O

Experiments:
Epithelial lining fluid = format: in vivo, Swiss Webster mice; settings: for Time post dose up to which component could be quantified in ELF: mouse, in vivo
PA 9019 = settings: PA 9019, MDR bloodstream isolate; previously determined; cited from earlier work
[1] = test system: Pseudomonas aeruginosa ATCC 27853 (PA 27853); settings: previously determined; cited from earlier work
[2] = Serum pharmacokinetics after intravenous administration in mice; settings: female, ND4 Swiss Webster, mouse, in vivo, 3 mg/kg

CCCCCCCC(=O)N[C@@H](CCN)C(=O)N[C@H](C(=O)N[C@@H](CCN)C(=O)N[C@H]1CCNC(=O)[C@H]([C@@H](C)O)NC(=O)[C@H](CCN)NC(=O)[C@H](CCN)NC(=O)[C@H](CC(C)C)NC(=O)[C@@H](Cc2ccccc2)NC(=O)[C@H](CCN)NC1=O)[C@@H](C)O [PB3, polymyxin B3] (Octanoyl-[Dab]T[Dab][Dab][Dab][dF]L[Dab][Dab]T; lactam 4-C)
Time post dose up to which component could be quantified in ELF (Epithelial lining fluid): up to 2 h

CC(C)CCCCC(=O)N[C@@H](CCN)C(=O)N[C@H](C(=O)N[C@@H](CCN)C(=O)N[C@H]1CCNC(=O)[C@H]([C@@H](C)O)NC(=O)[C@H](CCN)NC(=O)[C@H](CCN)NC(=O)[C@H](CC(C)C)NC(=O)[C@@H](Cc2ccccc2)NC(=O)[C@H](CCN)NC1=O)[C@@H](C)O [PB2, polymyxin B2] ({Heptanoyl(6-Me)}-[Dab]T[Dab][Dab][Dab][dF]L[Dab][Dab]T; lactam 4-C)
Time post dose up to which component could be quantified in ELF (Epithelial lining fluid): up to 2 h

Polymyxin B [PB]
MIC (PA 9019): 4 mg/L
MIC [1]: 2 mg/L

CC[C@H](C)CCCCC(=O)N[C@@H](CCN)C(=O)N[C@H](C(=O)N[C@@H](CCN)C(=O)N[C@H]1CCNC(=O)[C@H]([C@@H](C)O)NC(=O)[C@H](CCN)NC(=O)[C@H](CCN)NC(=O)[C@H](CC(C)C)NC(=O)[C@@H](Cc2ccccc2)NC(=O)[C@H](CCN)NC1=O)[C@@H](C)O [PB1, polymyxin B1] (X1-[Dab]T[Dab][Dab][Dab][dF]L[Dab][Dab]T; lactam 4-C)
AUC ratio (liposome:solution) in epithelial lining fluid (Epithelial lining fluid; ELF AUC0–6h, i.v. ca. 3 mg/kg, mice): 6.21
half-life [2]: 19.2 min

CC[C@H](C)CCCCC(=O)N[C@@H](CCN)C(=O)N[C@H](C(=O)N[C@@H](CCN)C(=O)N[C@H]1CCNC(=O)[C@H]([C@@H](C)O)NC(=O)[C@H](CCN)NC(=O)[C@H](CCN)NC(=O)[C@H]([C@@H](C)CC)NC(=O)[C@@H](Cc2ccccc2)NC(=O)[C@H](CCN)NC1=O)[C@@H](C)O [ile-PB1, isoleucine-B1] (X1-[Dab]T[Dab][Dab][Dab][dF]I[Dab][Dab]T; lactam 4-C)
Time post dose up to which component could be quantified in ELF (Epithelial lining fluid): up to 2 h
